Experiment [1] can be described thus: Binding affinity to pBS plasmid 117 base-pair DNA fragment assessed as half life of DNA alkylation by gel shift assay.
The next experiment deals with L1210. Put plainly: Cytotoxicity against mouse L1210 cells after 48 hrs by microculture tetrazolium assay. It is filed as functional, cell-based.
Experiment [2] in a line: (§1) Cytotoxicity against human KB-3-1 cells after 96 hrs by microculture tetrazolium assay. It is filed as functional, cell-based. The note with it: KB 3-1, 96 h.
Experiment [3] concerns MC-38. Put plainly: Antitumor activity against mouse Colon 38 cells xenografted B6D2F1 mouse assessed as inhibition of tumor growth at 4 mg/kg, iv administered twice daily. Type of experiment: functional.
The subject of a further experiment is KB 3-1. Described as §1. Type of experiment: functional, cell-based.
Experiment [4] concerns MC-38. Put plainly: Toxicity in mouse Colon 38 cells xenografted B6D2F1 mouse assessed as inhibition of tumor growth at 4 mg/kg, iv administered twice daily. Type of experiment: functional, organism-based. Further details: dose 4 mg/kg.
Experiment [5] concerns MC-38. Put plainly: Antitumor activity against mouse Colon 38 cells xenografted B6D2F1 mouse assessed as inhibition of tumor growth at 2 mg/kg, iv administered twice daily. It is filed as functional.
Experiment [6] concerns MC-38. Put plainly: Antitumor activity against mouse Colon 38 cells xenografted B6D2F1 mouse assessed as tumor free state at 4 mg/kg, iv administered twice daily on day 90 post drug dose. It is filed as functional, organism-based. Also noted: dose 4 mg/kg.
[7] abbreviates: Mus musculus, L1210, 48 h, read-out: IC50.

In general, IC50 refers to the concentration needed to halve the response being measured. Usually inhibition in vivo stands for the share of the control response that was lost under treatment.

Activity calls are given as the source filed them. The calls are words filed in the database; no cut-off is given here.

As for `COc1cc2c(c3c1c(=O)c1cc4ccccc4cc1n3C)[C@@H](O)[C@@H](OC(C)=O)C(C)(C)O2` (racemic), the T1/2 in experiment [1] was determined as 0.0833 h. In addition, the IC50 with L1210 (setting [7]) worked out at 620 nM; in experiment [2], 160 nM.

Turning to `COc1ccc(/C=C/C(=O)O[C@@H]2[C@H](O)c3c(cc(OC)c4c(=O)c5cc6ccccc6cc5n(C)c34)OC2(C)C)cc1` (racemic), the IC50 with L1210 (setting [7]) came out at 130 nM; in experiment [2], 30 nM.

Turning to `COc1cc2c(c3c1c(=O)c1cc4ccccc4cc1n3C)[C@@H](O)[C@@H](OC(=O)/C=C/c1ccc(C(F)(F)F)cc1)C(C)(C)O2` (racemic), the figures for the IC50 (in the experiment on L1210 (setting [7]); in experiment [2]) were 90 nM and 20 nM, respectively.

Take `COc1cc2c(c3c1c(=O)c1cc4ccccc4cc1n3C)[C@@H](O)[C@@H](OC(=O)/C=C/c1cccc(Br)c1)C(C)(C)O2` (racemic): the IC50 in the experiment with L1210 (setting [7]) was 80 nM; in experiment [2], 20 nM.

With `COc1cc2c(c3c1c(=O)c1cc4ccccc4cc1n3C)[C@@H](O)[C@@H](OC(=O)/C=C/c1ccccc1Cl)C(C)(C)O2` (racemic), the values for the IC50 (in the experiment with L1210 (setting [7]); in experiment [2]) were 50 nM and 20 nM, respectively.

As for `COc1cc2c(c3c1c(=O)c1cc4ccccc4cc1n3C)[C@@H](OC(C)=O)[C@@H](OC(=O)/C=C/c1ccc(Cl)c(Cl)c1)C(C)(C)O2` (racemic), in experiment [1], the T1/2 is over 24 h. Moreover, the inhibition in vivo at 4 mg/kg in the experiment on MC-38 [3] turned out to be 84%. Moreover, the IC50 with L1210 (setting [7]) came to 400 nM; in experiment [2], 50 nM.

In the case of `COc1ccc(/C=C/C(=O)O[C@@H]2[C@H](O)c3c(cc(OC)c4c(=O)c5cc6ccccc6cc5n(C)c34)OC2(C)C)cc1OC` (racemic), the IC50 amounted to 1100 nM in the experiment with L1210 (setting [7]) and 80 nM in experiment [2].

Regarding `COc1cc2c(c3c1c(=O)c1cc4ccccc4cc1n3C)[C@@H](OC(C)=O)[C@@H](OC(=O)/C=C/c1cccc(Cl)c1)C(C)(C)O2` (racemic), in the experiment with L1210 (l1210), the IC50 result is on record as “Insoluble”. In addition, in the experiment with KB 3-1, the solubility result is “Not soluble”.

For `COc1ccc(/C=C/C(=O)O[C@@H]2[C@H](OC(C)=O)c3c(cc(OC)c4c(=O)c5cc6ccccc6cc5n(C)c34)OC2(C)C)cc1OC` (racemic), the figures for the IC50 (with L1210 (setting [7]); in experiment [2]) were 900 nM and 150 nM, respectively.

For the compound `COc1cc2c(c3c1c(=O)c1cc4ccccc4cc1n3C)[C@@H](O)[C@@H](OC(=O)/C=C/c1ccc(Cl)c(Cl)c1)C(C)(C)O2` (racemic), the T1/2 in experiment [1] was found to be 1 h. Further, in the experiment with MC-38 [4], the Activity entry is “Toxic”. For the same compound, in the experiment on MC-38 [5], the inhibition in vivo at 2 mg/kg turned out to be 90%. Besides, the IC50 was 35 nM with L1210 (setting [7]) and 6 nM in experiment [2].

Turning to `COc1cc2c(c3c1c(=O)c1cc4ccccc4cc1n3C)[C@@H](OC(C)=O)[C@@H](OC(=O)/C=C/c1ccc(Cl)cc1)C(C)(C)O2` (racemic), in experiment [1], the T1/2 came out at 6 h. Also, the IC50 in the experiment with L1210 (setting [7]) stood at 500 nM; in experiment [2], 70 nM.

For `COc1cc2c(c3c1c(=O)c1cc4ccccc4cc1n3C)[C@@H](O)[C@@H](OC(=O)/C=C/c1ccc([N+](=O)[O-])cc1)C(C)(C)O2` (racemic), the IC50 in the experiment with L1210 (setting [7]) was found to be 240 nM; in experiment [2], 30 nM.

Consider `COc1cc2c(c3c1c(=O)c1cc4ccccc4cc1n3C)[C@@H](OC(C)=O)[C@@H](OC(=O)/C=C/c1cccc(C(F)(F)F)c1)C(C)(C)O2` (racemic), for which the values for the IC50 (in the experiment with L1210 (setting [7]); in experiment [2]) were 700 nM and 60 nM, respectively.

Consider `COc1cc2c(c3c1c(=O)c1cc4ccccc4cc1n3C)[C@@H](OC(C)=O)[C@@H](OC(=O)/C=C/c1ccccc1Cl)C(C)(C)O2` (racemic), for which the IC50 with L1210 (setting [7]) stood at 600 nM; in experiment [2], 90 nM.

Take `COc1cc2c(c3c1c(=O)c1cc4ccccc4cc1n3C)[C@@H](OC(C)=O)[C@@H](OC(=O)/C=C/c1ccccc1)C(C)(C)O2` (racemic): the T1/2 in experiment [1] worked out at 1.5 h. Besides, the IC50 in the experiment with L1210 (setting [7]) amounted to 1100 nM; in experiment [2], 150 nM.

With `COc1cc2c(c3c1c(=O)c1cc4ccccc4cc1n3C)[C@@H](OC(C)=O)[C@@H](OC(=O)/C=C/c1ccc(C(F)(F)F)cc1)C(C)(C)O2` (racemic), the IC50 with L1210 (setting [7]) stood at 1500 nM; in experiment [2] it was 300 nM.

Regarding `COc1cc2c(c3c1c(=O)c1cc4ccccc4cc1n3C)[C@@H](O)[C@@H](OC(=O)/C=C/c1ccccc1)C(C)(C)O2` (racemic), the T1/2 in experiment [1] was determined as 0.333 h. Further, the figures for the IC50 (in the experiment with L1210 (setting [7]); in experiment [2]) were 120 nM and 30 nM, respectively.

On to `COc1cc2c(c3c1c(=O)c1cc4ccccc4cc1n3C)[C@@H](OC(C)=O)[C@@H](OC(=O)/C=C/c1cccc(Br)c1)C(C)(C)O2` (racemic), for which the IC50 in the experiment on L1210 (setting [7]) was 600 nM; in experiment [2], 120 nM.

Take `COc1cc2c(c3c1c(=O)c1cc4ccccc4cc1n3C)[C@@H](O)[C@@H](OC(=O)/C=C/c1cccc(Cl)c1)C(C)(C)O2` (racemic): the IC50 in the experiment with L1210 (setting [7]) was determined as 60 nM; in experiment [2] it was 20 nM.

With `COc1cc2c(c3c1c(=O)c1cc4ccccc4cc1n3C)[C@@H](O)[C@@H](OC(=O)/C=C/c1cccc(C(F)(F)F)c1)C(C)(C)O2` (racemic), the IC50 in the experiment with L1210 (setting [7]) worked out at 100 nM; in experiment [2] it was 15 nM.

With `COc1cc2c(c3c1c(=O)c1cc4ccccc4cc1n3C)[C@@H](OC(C)=O)[C@@H](OC(=O)/C=C/c1ccc(Cl)cc1Cl)C(C)(C)O2` (racemic), the IC50 in the experiment with L1210 (setting [7]) worked out at 600 nM; in experiment [2] it was 90 nM.

Turning to `COc1cc2c(c3c1c(=O)c1cc4ccccc4cc1n3C)[C@@H](O)[C@@H](OC(=O)/C=C/c1ccc(Cl)cc1)C(C)(C)O2` (racemic), the T1/2 in experiment [1] was found to be 1 h. For the same compound, the IC50 worked out at 40 nM in the experiment on L1210 (setting [7]) and 8 nM in experiment [2].

Consider `COc1cc2c(c3c1c(=O)c1cc4ccccc4cc1n3C)[C@@H](OC(C)=O)[C@@H](OC(=O)/C=C/c1ccc([N+](=O)[O-])cc1)C(C)(C)O2` (racemic), for which the IC50 was 500 nM in the experiment with L1210 (setting [7]) and 140 nM in experiment [2].

With `COc1ccc(/C=C/C(=O)O[C@@H]2[C@H](OC(C)=O)c3c(cc(OC)c4c(=O)c5cc6ccccc6cc5n(C)c34)OC2(C)C)cc1` (racemic), the IC50 was 1200 nM with L1210 (setting [7]) and 240 nM in experiment [2].

As to `COc1cc2c(c3c1c(=O)c1cc4ccccc4cc1n3C)[C@@H](O)[C@@H](OC(=O)/C=C/c1ccc(Cl)cc1Cl)C(C)(C)O2` (racemic), the values for the IC50 (in the experiment on L1210 (setting [7]); in experiment [2]) were 35 nM and 6 nM, respectively.

With `COc1cc2c(c3c1c(=O)c1cc4ccccc4cc1n3C)[C@@H](O)[C@@H](OC(=O)/C=C/c1ccc(Br)cc1)C(C)(C)O2` (racemic), the T1/2 in experiment [1] was determined as 1 h. In addition, the IC50 with L1210 (setting [7]) worked out at 50 nM; in experiment [2] it was 6 nM.

Regarding `COc1cc2c(c3c1c(=O)c1cc4ccccc4cc1n3C)[C@@H](OC(C)=O)[C@@H](OC(=O)/C=C/c1ccc(Br)cc1)C(C)(C)O2` (racemic), the T1/2 in experiment [1] was found to be 6 h. For the same compound, the IC50 came out at 700 nM in the experiment on L1210 (setting [7]) and 80 nM in experiment [2].

Take `COc1cc2c(c3c1c(=O)c1cc4ccccc4cc1n3C)[C@@H](OC(C)=O)[C@@H](OC(C)=O)C(C)(C)O2` (racemic): the T1/2 in experiment [1] turned out to be 0.5 h. Further, in the experiment with MC-38 [3], the inhibition in vivo at 4 mg/kg came to 99%. Besides, the values for the IC50 (in the experiment with L1210 (setting [7]); in experiment [2]) were 790 nM and 100 nM, respectively. For the same compound, the result in the experiment with MC-38 [6] was Active.

These data come from ChEMBL document CHEMBL1152763, “Synthesis, cytotoxic activity, and DNA binding properties of antitumor cis-1,2-dihydroxy-1,2-dihydrobenzo[b]acronycine cinnamoyl esters” (Bioorg Med Chem, 2009).
